The target of this experiment is EGFR (rat) (UniProt P00533). The conditions noted are these: rat-1/her cells; for inhibition: dose or concentration not given here.

Usually inhibition stands for the relative decrease from the control value, in per cent. A higher inhibition goes with strong suppression. By IC50 is commonly meant the concentration needed to halve the response being measured. A higher IC50 goes with weaker potency.

Sequence of EGFR (rat) (P00533 whole entry, looked up): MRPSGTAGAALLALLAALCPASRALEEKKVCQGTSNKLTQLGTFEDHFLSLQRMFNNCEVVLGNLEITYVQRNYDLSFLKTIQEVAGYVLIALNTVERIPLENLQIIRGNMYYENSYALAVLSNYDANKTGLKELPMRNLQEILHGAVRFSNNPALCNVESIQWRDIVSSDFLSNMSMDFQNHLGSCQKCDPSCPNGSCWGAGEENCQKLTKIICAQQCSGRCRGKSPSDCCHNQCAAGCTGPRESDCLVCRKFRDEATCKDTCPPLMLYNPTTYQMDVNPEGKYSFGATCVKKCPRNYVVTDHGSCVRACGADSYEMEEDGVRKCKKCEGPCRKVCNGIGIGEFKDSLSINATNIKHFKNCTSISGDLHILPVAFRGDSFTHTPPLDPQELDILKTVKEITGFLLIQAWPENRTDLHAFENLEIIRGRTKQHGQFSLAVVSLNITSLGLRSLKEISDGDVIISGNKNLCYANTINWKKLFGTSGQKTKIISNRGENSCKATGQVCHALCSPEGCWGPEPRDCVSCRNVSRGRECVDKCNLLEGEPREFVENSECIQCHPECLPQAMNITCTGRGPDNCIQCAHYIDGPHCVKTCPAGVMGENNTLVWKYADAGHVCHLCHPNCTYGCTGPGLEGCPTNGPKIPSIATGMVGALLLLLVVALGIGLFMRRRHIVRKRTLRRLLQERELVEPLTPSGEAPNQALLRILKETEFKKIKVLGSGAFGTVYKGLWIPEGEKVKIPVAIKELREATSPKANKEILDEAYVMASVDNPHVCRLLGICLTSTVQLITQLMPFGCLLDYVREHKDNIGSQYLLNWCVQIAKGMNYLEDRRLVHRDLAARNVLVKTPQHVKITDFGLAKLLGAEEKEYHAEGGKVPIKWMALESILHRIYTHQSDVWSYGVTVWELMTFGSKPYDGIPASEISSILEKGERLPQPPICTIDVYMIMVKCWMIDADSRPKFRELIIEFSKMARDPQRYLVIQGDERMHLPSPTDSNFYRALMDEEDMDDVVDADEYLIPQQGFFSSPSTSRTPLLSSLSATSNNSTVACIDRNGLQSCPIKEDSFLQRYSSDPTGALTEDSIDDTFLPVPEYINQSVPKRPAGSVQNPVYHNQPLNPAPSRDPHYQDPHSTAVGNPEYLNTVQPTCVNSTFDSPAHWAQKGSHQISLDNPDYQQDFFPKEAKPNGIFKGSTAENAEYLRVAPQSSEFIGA

Consider `COc1c(Br)cc2c(c1Br)OCO2`, for which the inhibition turned out to be 0%.

Compound `COc1c(Br)cc(O)c(O)c1Br` showed an inhibition of 0%.

In turn, `COc1c(Br)cc(CO)c(O)c1Br` gave an inhibition of 0%.

The compound `COC1=C(Br)[C@@H](O)[C@@](O)(CC#N)C=C1Br` returned an inhibition of 0%.

In the case of `COC1=C(Br)C(=O)[C@@](O)(CC#N)C=C1Br`, the inhibition amounted to 0%.

With `O=Cc1cc(Br)cc(Br)c1O`, the IC50 was found to be 120 µM.

`COc1c(Br)cc(C=O)c(O)c1Br` had an IC50 of 35 µM.

With `COC1=C(Br)C(=O)[C@]2(C=C1Br)CO2`, the IC50 was 10 µM.

In the case of `COC1=C(Br)C(O)(O)[C@@](O)(CC#N)CC1Br` (stereo partly drawn), the inhibition amounted to 0%.

Take `COc1ccc(C=O)c(O)c1`: the inhibition is 0%.

Regarding `COC1=C(Br)C(=O)[C@](CC#N)(OC(C)=O)C=C1Br`, the IC50 is 55 µM.

As for `COC1=C(Br)[C@H](O)[C@@](O)(CC#N)C=C1Br`, the inhibition amounted to 0%.

Turning to `COc1c(Br)cc(CC#N)c(O)c1Br`, the inhibition amounted to 0%.

The values are drawn from the Kinase Knowledgebase extract (Sharma et al. 2016).
